Assay results as given in patent US20070275936A1, “Formulations and Treatment Methods” (priority 1998, published 2007).
Read-outs that look alike come from different tables or passages of the source.

Columns and labels:
P. berghei = assay: Survival of P. berghei infected mice given BrEA I.V. or S.C.; format: in vivo; conditions: cyclodextrin formulation, all control animals dead by day 10
Experimental: In a similar protocol, mice are inoculated with a solution containing 1×10^7 erythrocytes/mL by I.V. injection. Two hours later give drug is delivered by I.V. injection. BrEA or another formula 1 compound is given (0.2 mL I.V. or S.C.) once a day for 4 days. Tail snips are used to obtain blood after the study. Mice infected with P. berghei were used to obtain infected cells. Parasites are harvested from cardiac mouse blood, and uninfected mice are infected using 0.2 ml of blood with 14% parasitaemia per mouse I.V. Two hours later, the first dose of BrEA (100 mg/kg I.V. or S.C.) is delivered to the infected animals. The BrEA formulation was a sterile solution containing 15 mg/mL of BrEA in 45% hydroxypropyl-β-cyclodextrin and 0.9% saline. At 1, 2, 3 and 4 days after the infection of the animals, BrEA (100 mg/kg I.V. or S.C.) is delivered to the infected animals.

blood cell counts = assay: Enhancement of hemopoiesis in a human HIV patient; format: in vivo
Experimental: A human patient infected with the HIV virus was treated with 16α-bromoepiandrosterone (“BrEA”), using a physiological saline formulation containing 10 mg/mL of BrEA in solution, 36% w/v hydroxypropyl-β-cyclodextrin and 20 mg/mL of micronized BrEA in suspension. The patient received two courses of treatment. The first course consisted of subcutaneous injection once per day of 80 mg of BrEA for 10 days. The second course of treatment commenced 74 days later and used the same formulation, except that deuterium oxide replaced water in the formulation. The second treatment course consisted of subcutaneous injection once per day of 80 mg of BrEA for 15 days. The patient's blood parameters were obtained at the start and at the end of each course of treatment.

[1] = Pharmacokinetics of BrEA after subcutaneous dose in rats; format: in vivo; conditions: for half-life: rat, plasma, sc, biphasic elimination
Experimental: BrEA was administered subcutaneously to rats using the formulation of example 1. Approximately 90% of the drug left the injection site within 24 hours of administration, and reached a maximum concentration in the plasma of about 0.2% of the injected dose at one hour post administration. Elimination from the plasma was biphasic, with half-lives of about 12 and 72 hours respectively. […] A study is also performed in Rhesus Monkeys with the example 1 formulation to determine plasma pharmacokinetics.

[2] = test system: CD4+ memory T cell 1 (MT1) and memory T cell 2 (MT2) cells; assay: MT1:MT2 memory T cell ratio in patients after 5 day i.m. BrEA; format: in vivo, human
Experimental: In a separate clinical trial using 100 mg of BrEA delivered to patients once per day for 5 consecutive days by intramuscular injection, several patients were evaluated for changes in the ratio of CD4^+ memory T cell 1 cells (intracellular IFNγ^+ CD45RA^− CD62L^− CD11a^bright) or MT1 cells to memory T cell 2 cells (intracellular IL-4^+ CD45RA^− CD62L^+ CD11a^dim) or MT2 cells. MT1 cells mediate or facilitate Th1 immune responses and MT2 cells mediate or facilitate Th2 immune responses. An increase in the MT1:MT2 ratio indicates an enhanced Th1 immune response or immune status. See, e.g., D. K. Mitra et al., International Immunology 1999 11:1801-1810. […] The maximum observed increase was about 700% in one patient at 10 days after the last dose of BrEA was administered. The increase usually persisted for more than 10 days after the last dose of BrEA was administered.

Plasmodium falciparum = assay: Inhibition of parasite growth in culture; format: cell-based
Experimental: The effect of Epi (16α-bromo-epiandrosterone) on parasite (Plasmodium falciparum) growth was shown. EPI was active at a concentration of 1 μM.
Parasitemias were determined by standard methods (microscopic inspection of at least 500 cells, stained with Diff-Quick™ (Baxter). Parasites were cultured under standard conditions in RPMI-1640 supplemented with Hepes/Glucose (10 mM), glutamine (0.3 g/liter) and 10% human plasma. The hematocrit was 1%.

SMILES: C[C@]12CC[C@H](O)C[C@@H]1CC[C@@H]1[C@@H]2CC[C@]2(C)C(=O)[C@H](Br)C[C@@H]12 [BrEA, 16α-bromo-3β-hydroxy-5α-androstane-17-one]
- survival of infected mice (P. berghei; BrEA 100 mg/kg I.V. daily): No deaths occurred in the group receiving I.V. BrEA at day 30
- survival of infected mice (P. berghei; BrEA 100 mg/kg S.C. daily): dead by Day 11
- WBC (blood cell counts; 1st Course end (80 mg s.c. daily 10 days), start 2.38): 2.47e+09 L⁻¹
- basophils (blood cell counts; 1st Course end, start 0.02): 1e+07 L⁻¹
- monocytes (blood cell counts; 1st Course end, start 0.35): 3e+08 L⁻¹
- neutrophils (blood cell counts; 1st Course end, start 0.92): 8e+08 L⁻¹
- CD4+ T cells (blood cell counts; 1st Course end, start 93): 116 mm^−3
- CD16+/56+ NK cells (blood cell counts; 1st Course end, start 186): 348 mm^−3
- T suppressor cells (blood cell counts; 1st Course end, start 344): 452 mm^−3
- WBC (blood cell counts; 2nd Course end (80 mg s.c. daily 15 days), start 3.57): 5.66e+09 L⁻¹
- basophils (blood cell counts; 2nd Course end, start 0.01): 6e+07 L⁻¹
- monocytes (blood cell counts; 2nd Course end, start 0.34): 5.4e+08 L⁻¹
- neutrophils (blood cell counts; 2nd Course end, start 2.02): 3.6e+09 L⁻¹
- CD4+ T cells (blood cell counts; 2nd Course end, start 113): 125 mm^−3
- CD16+/56+ NK cells (blood cell counts; 2nd Course end, start 144): 425 mm^−3
- T suppressor cells (blood cell counts; 2nd Course end, start 351): 513 mm^−3
- half-life ([1]; rats s.c., read-out: plasma elimination half-life, first phase (converted)): ~12 h
- half-life ([1]; rats s.c., read-out: plasma elimination half-life, second phase (converted)): ~72 h
- accumulation in organs ([1]; rats s.c.): did not accumulate to a significant extent in any major organ
- route of excretion ([1]; rats s.c.): excreted primarily in the feces
- time of maximum concentration in the plasma ([1]; rats s.c.): one
- maximum concentration in the plasma ([1]; rats s.c., at one hour post administration): about 0.2 % of the injected dose
- drug left the injection site ([1]; rats, subcutaneous, formulation of example 1, within 24 hours): Approximately 90%
- tested patients showing a transient increase in the MT1:MT2 ratio ([2]; 100 mg i.m. once per day for 5 consecutive days): 7/7
- maximum observed increase in the MT1:MT2 ratio ([2]; one patient, 10 days after the last dose): about 700%
- Parasitemia after treatment (Plasmodium falciparum; 50 nM, 24 hrs, Time 0 2%, control + DMSO 8.80%): 9.90%
- Parasitemia after treatment (Plasmodium falciparum; 50 nM, 48 hrs, Time 0 2%, control + DMSO 11%): 9.20%
- Parasitemia after treatment (Plasmodium falciparum; 50 nM, 72 hrs, Time 0 2%, control + DMSO 8%): 8.30%
- Parasitemia after treatment (Plasmodium falciparum; 1 μM, 24 hrs, Time 0 2%, control + DMSO 8.80%): 5.80%
- Parasitemia after treatment (Plasmodium falciparum; 1 μM, 24 hrs, Time 0 5%, control + DMSO 5.40%): 5.70%
- Parasitemia after treatment (Plasmodium falciparum; 1 μM, 48 hrs, Time 0 2%, control + DMSO 11%): 6.10%
- Parasitemia after treatment (Plasmodium falciparum; 1 μM, 48 hrs, Time 0 5%, control + DMSO 3.10%): 5.50%
- Parasitemia after treatment (Plasmodium falciparum; 1 μM, 72 hrs, Time 0 2%, control + DMSO 8%): 2.10%
- Parasitemia after treatment (Plasmodium falciparum; 1 μM, 72 hrs, Time 0 5%, control + DMSO 5.20%): 1.60%
- Parasitemia after treatment (Plasmodium falciparum; 2.5 μM, 24 hrs, Time 0 2%, control + DMSO 8.80%): 7.30%
- Parasitemia after treatment (Plasmodium falciparum; 2.5 μM, 48 hrs, Time 0 2%, control + DMSO 11%): 5.80%
- Parasitemia after treatment (Plasmodium falciparum; 2.5 μM, 72 hrs, Time 0 2%, control + DMSO 8%): 3.20%
- Parasitemia after treatment (Plasmodium falciparum; 5 μM, 24 hrs, Time 0 2%, control + DMSO 8.80%): 5.40%
- Parasitemia after treatment (Plasmodium falciparum; 5 μM, 48 hrs, Time 0 2%, control + DMSO 11%): 6%
- Parasitemia after treatment (Plasmodium falciparum; 5 μM, 72 hrs, Time 0 2%, control + DMSO 8%): 1.80%
- Parasitemia after treatment (Plasmodium falciparum; 10 μM, 24 hrs, Time 0 2%, control + DMSO 8.80%): 4.20%
- Parasitemia after treatment (Plasmodium falciparum; 10 μM, 24 hrs, Time 0 5%, control + DMSO 5.40%): 5.60%
- Parasitemia after treatment (Plasmodium falciparum; 10 μM, 48 hrs, Time 0 2%, control + DMSO 11%): 3%
- Parasitemia after treatment (Plasmodium falciparum; 10 μM, 48 hrs, Time 0 5%, control + DMSO 3.10%): 0.90%
- Parasitemia after treatment (Plasmodium falciparum; 10 μM, 72 hrs, Time 0 2%, control + DMSO 8%): 0%
- Parasitemia after treatment (Plasmodium falciparum; 10 μM, 72 hrs, Time 0 5%, control + DMSO 5.20%): 0%
- Parasitemia after treatment (Plasmodium falciparum; 50 μM, 24 hrs, Time 0 2%, control + DMSO 8.80%): 0%
- Parasitemia after treatment (Plasmodium falciparum; 50 μM, 48 hrs, Time 0 2%, control + DMSO 11%): 0%
- Parasitemia after treatment (Plasmodium falciparum; 50 μM, 72 hrs, Time 0 2%, control + DMSO 8%): 0%
- Parasitemia after treatment (Plasmodium falciparum; 100 μM, 24 hrs, Time 0 5%, control + DMSO 5.40%): 0%
- Parasitemia after treatment (Plasmodium falciparum; 100 μM, 48 hrs, Time 0 5%, control + DMSO 3.10%): 0%
- Parasitemia after treatment (Plasmodium falciparum; 100 μM, 72 hrs, Time 0 5%, control + DMSO 5.20%): 0%
- Parasitemia after treatment (Plasmodium falciparum; 500 μM, 24 hrs, Time 0 5%, control + DMSO 5.40%): 0%
- Parasitemia after treatment (Plasmodium falciparum; 500 μM, 48 hrs, Time 0 5%, control + DMSO 3.10%): 0%
- Parasitemia after treatment (Plasmodium falciparum; 500 μM, 72 hrs, Time 0 5%, control + DMSO 5.20%): 0%
- concentration at which active on parasite growth (Plasmodium falciparum; P. falciparum culture): 1 µM
